Test results: patent US20150104519A1, “Pharmaceutical Compositions” (Alpharma Pharmaceuticals LLC, priority 2007, published 2015)
Where a name gives a salt, the structure may show the parent alone.

Columns and labels:
[1] = in comparison to a 15 mg dose of hydrocodone
[2] = cited from earlier work
morphine effects = settings: three 100-mg doses of naltrexone; MS Contin; cited from earlier work
mu over delta sites = settings: cited from earlier work

| Molecule | Equianalgesic dose, Calculated Dose [1] | other results |
| --- | --- | --- |
| COc1ccc2c3c1OC1C(=O)CC[C@@]4(O)[C@@H](C2)N(C)CC[C@]314 (stereo partly drawn) [Oxycodone, 4,5-epoxy-14-hydroxy-3-methoxy-17-methylmorphinan-6-one] | 13.5 mg | – |
| O=C1CC[C@@]2(O)[C@H]3Cc4ccc(O)c5c4[C@@]2(CCN3CC2CC2)[C@H]1O5 [hydrochloride salt of naltrexone, Naltrexone HCl] | – | soluble in water [2]: about 100 mg/cc |
| COc1ccc2c3c1OC1C(=O)CC[C@H]4[C@@H](C2)N(C)CC[C@]314 (stereo partly drawn) [Hydrocodone, 4,5-epoxy-3-methoxy-17-methylmorphinan-6-one] | 15.0 mg | – |
| CCC(=O)C(CC(C)N(C)C)(c1ccccc1)c1ccccc1 (stereo not drawn) [Methadone] | 9.0 mg | – |
| Meperidine | 135.0 mg | – |
| O=C1CC[C@@]2(O)[C@H]3Cc4ccc(O)c5c4[C@@]2(CCN3CC2CC2)[C@H]1O5 [naltrexone] | – | blockade of morphine effects (morphine effects): blocked; blocking action, site preference (mu over delta sites): strong preferential blocking action against mu over delta sites |
| COc1ccc2c3c1O[C@H]1[C@@H](O)C=C[C@H]4[C@@H](C2)N(C)CC[C@@]341 [Codeine] | 90.0 mg | – |
| CN1CC[C@]23CCCC[C@H]2[C@H]1Cc1ccc(O)cc13 [Levorphanol] | 1.8 mg | – |
